In patent US20230044979A1, “ANIMAL CELL CULTURING METHOD” (AJINOMOTO CO., INC., priority 2020, published 2023):

Tests used:
[1] = Stability of L-cysteine derivatives in buffer solution (crystal precipitation by visual observation); assay type: physicochemical; details: 58 mM in PBS buffer pH 7.0 to 7.2; for crystal precipitation, Days 0 / crystal precipitation, Days 3 / crystal precipitation, Days 7 / crystal precipitation, Days 14 / crystal precipitation, Days 21 / crystal precipitation, Days 24: stored at 5° C. in the dark; for crystal precipitation, Days 0: day 0; for crystal precipitation, Days 3: day 3; for crystal precipitation, Days 7: day 7; for crystal precipitation, Days 14: day 14; for crystal precipitation, Days 21: day 21; for crystal precipitation, Days 24: day 24
Protocol: In this Example, the stability of L-cysteine derivatives in a buffer solution was evaluated.
In the table, “+” to “++++” indicate that crystal precipitation was observed, and the higher the number of “+”, the greater the degree of precipitation.

[2] = system: CHO cells modified to produce a monoclonal antibody; assay: Effect of addition of L-cysteine derivatives to feed medium on proliferation of CHO cells and antibody production (1); assay type: cell-based, Chinese hamster; details: for antibody production amount: 14.5, 29 or 58 mM in feed medium, fed on days 4, 7, 9, 11, 14 days culture, FIG. 3
Protocol: In this Example, an effect of addition of L-cysteine derivatives to a feed medium on proliferation of CHO cells and antibody production was evaluated. As the L-cysteine derivatives, Compounds 1 and 2 were used. As the CHO cells, CHO cells modified to produce a monoclonal antibody were used.
CELLiST (registered trademark) Basal media (Ajinomoto Co., Ltd.: BASAL3; containing 1.3 mM L-cysteine) was added with LR3-IGF-1 (SIGMA-ALDRICH: I1271-1MG, final concentration of 50 μg/mL) and L-Glutamine (Thermo Fisher SCIENTIFIC: 25030081, final concentration of 6 mM), to prepare a basal medium.
Feed media (9 kinds in total) each containing 82 g/L Cellvento (registered trademark) Feed-210 (Merck: 1.02488.0005), 70 g/L glucose (Wako Pure Chemical Industries, Ltd.: 043-31163), and L-cysteine, Compound 1, or Compound 2 each at 14.5 mM, 29 mM, or 58 mM were prepared. In addition, a feed medium without addition of L-cysteine, which only contained 82 g/L Cellvento (registered trademark) Feed-210 and 70 g/L glucose, was prepared. Separately, a tyrosine concentrate (L-tyrosine disodium salt dihydrate (Merck: 122666-87-9) 149.64 g/L, pH 11.3) was prepared.
A 30 mL-aliquot of a CHO cell suspension adjusted to 3×10^5 cells/mL using the prepared basal medium was seeded into 125 mL-volume flasks (CORNING: 431143), and cultured for 14 days. The culture was carried out with n=2 for all experimental groups. The culture temperature was 37° C. and the agitation speed was 110 rpm. A 1.8 mL-aliquot of each of the prepared feed media and a 60 μL-aliquot of the tyrosine concentrate were added on days 4, 7, 9, and 11 from the start of the culture. A cell culture broth was sampled on days 4, 7, 9, 11, and 14 from the start of the culture, and the viable cell count was measured using a viable/dead cells autoanalyzer Vi-CELL™ XR (Beckman Coulter), and the antibody production amount was measured using Octet QK (FORTEBIO).

[3] = Stability of L-cysteine derivatives in feed medium (crystal precipitation by visual observation); assay type: physicochemical; details: for crystal precipitation, Days 0 / crystal precipitation, Days 1 / crystal precipitation, Days 7 / crystal precipitation, Days 22 / crystal precipitation, Days 30: stored at 5° C. in the dark; for crystal precipitation, Days 0: day 0; for crystal precipitation, Days 1: day 1; for crystal precipitation, Days 7: day 7; for crystal precipitation, Days 22: day 22; for crystal precipitation, Days 30: day 30
Protocol: In this Example, the stability of L-cysteine derivatives in a feed medium was evaluated. As the L-cysteine derivatives, Compounds 1 and 2 were used.
A feed medium containing 82 g/L Cellvento (registered trademark) Feed-210 (Merck: 1.02488.0005), 70 g/L glucose (Wako Pure Chemical Industries, Ltd.: 043-31163), and 58 mM L-cysteine, 58 mM Compound 1, or 58 mM Compound 2, and a feed medium without addition of L-cysteine, which only contained 82 g/L Cellvento (registered trademark) Feed-210 and 70 g/L glucose were prepared at pH 5.2 to 5.6, which are described in the instruction of Feed-210, and at pH 7.0, which is a neutral pH condition used for usual cultivation, to obtain 8 kinds of feed media in total. All of the feed media were prepared as transparent solutions.
After each of the feed media was stored at 5° C. in the dark, crystal precipitation was confirmed by visual observation. […] In the table, “+” to “++++” indicate that crystal precipitation was observed, and the higher the number of “+”, the greater the degree of precipitation. Under the addition condition, significant precipitation was observed from one week after the start of storage. Under the condition of adding Compound 2, precipitation was observed from 22 days after the start of storage.

[4] = system: CHO cells modified to produce a monoclonal antibody; assay: Effect of addition of L-cysteine derivatives to basal medium on proliferation of CHO cells; assay type: cell-based, Chinese hamster; details: for use as an alternative for L-cysteine in the basal medium: 1.3 mM in basal medium; for proliferation of cells (viable cell count): 1.3 mM in basal medium otherwise without L-cysteine, day 7 of culture, FIG. 1
Protocol: In this Example, an effect of addition of L-cysteine derivatives to a basal medium on proliferation of CHO cells was evaluated. As the L-cysteine derivatives, (2RS,4R)-2-methyl-2,4-thiazolidinedicarboxylic acid 2-ethyl ester (hereinafter, also referred to as “Compound 1”) and (2RS,4R)-2-methyl-2,4-thiazolidinedicarboxylic acid (hereinafter, also referred to as “Compound 2”) were used. As the CHO cells, CHO cells modified to produce a monoclonal antibody were used.
CELLiST (registered trademark) Basal media (Ajinomoto Co., Ltd.: BASAL3) without L-cysteine was prepared, to obtain a culture medium without addition of L-cysteine. The culture medium without addition of L-cysteine was added with L-cysteine, Compound 1, or Compound 2, to prepare a culture medium containing 1.3 mM L-cysteine, 1.3 mM Compound 1, or 1.3 mM Compound 2. Each culture medium was added with LR3-IGF-1 (SIGMA-ALDRICH: I1271-1MG, final concentration of 50 μg/mL) and L-Glutamine (Thermo Fisher SCIENTIFIC: 25030081, final concentration of 6 mM), to prepare a basal medium.
A 3 mL-aliquot of a CHO cell suspension adjusted to 3×10^5 cells/mL using the prepared basal medium was seeded into a 6 well plate (CORNING: 3471), and cultured for 11 days. The culture was carried out with n=3 for all experimental groups. The culture temperature was 37° C. and the agitation speed was 110 rpm. A cell culture broth was sampled on days 7 and 11 from the start of the culture, and the viable cell count was measured using a viable/dead cells autoanalyzer Vi-CELL™ XR (Beckman Coulter).

[5] = 58 mM in feed medium pH 5.2 to 5.6
[6] = 58 mM in feed medium, 5° C. in the dark

Row | relative stability compared with L-cysteine ([1]; 5° C. in the dark) | crystal precipitation, Days 0 [1] | crystal precipitation, Days 3 [1] | crystal precipitation, Days 7 [1] | crystal precipitation, Days 14 [1] | crystal precipitation, Days 21 [1] | crystal precipitation, Days 24 [1] | crystal precipitation, Days 0 [3, 5] | crystal precipitation, Days 1 [3, 5] | crystal precipitation, Days 7 [3, 5] | crystal precipitation, Days 22 [3, 5] | crystal precipitation, Days 30 [3, 5] | crystal precipitation, Days 0 ([3]; 58 mM in feed medium pH 7) | crystal precipitation, Days 1 ([3]; 58 mM in feed medium pH 7) | crystal precipitation, Days 7 ([3]; 58 mM in feed medium pH 7) | crystal precipitation, Days 22 ([3]; 58 mM in feed medium pH 7) | crystal precipitation, Days 30 ([3]; 58 mM in feed medium pH 7) | SMILES | antibody production amount [2] | use as an alternative for L-cysteine in the basal medium [4] | proliferation of cells (viable cell count) [4] | also measured
1 | more stable than L-cysteine | − | − | − | − | − | − | − | − | − | + | +++ | − | − | − | ++ | +++ | CC1(C(=O)O)N[C@H](C(=O)O)CS1 (mixture of isomers) [Compound 2, (2RS,4R)-2-methyl-2,4-thiazolidinedicarboxylic acid] | almost equivalent to that of the experimental group of L-cysteine | able to be used as an alternative for L-cysteine | almost equivalent to that of the experimental group using L-cysteine | precipitation observed from (after the start of storage) [3, 6]: 22 days
2 | more stable than L-cysteine | − | − | − | − | − | − | − | − | − | − | − | − | − | − | − | − | CCOC(=O)C1(C)N[C@H](C(=O)O)CS1 (mixture of isomers) [Compound 1, (2RS,4R)-2-methyl-2,4-thiazolidinedicarboxylic acid 2-ethyl ester] | almost equivalent to that of the experimental group of L-cysteine | unable to substitute the whole of L-cysteine in the basal medium | no proliferation of cells was observed | use as an alternative for L-cysteine in the feed medium ([2]; in feed medium, basal medium containing 1.3 mM L-cysteine): able to be used as an alternative for L-cysteine in the feed medium; relative stability in the culture medium [3, 6]: more stable than Compound 2; crystal precipitation on storage, in words ([3]; 58 mM in feed medium, 5° C. in the dark, up to 30 days after the start of storage): no crystal precipitation was observed

Row | SMILES | relative stability compared with L-cysteine ([1]; 5° C. in the dark) | crystal precipitation, Days 0 [1] | crystal precipitation, Days 3 [1] | crystal precipitation, Days 7 [1] | crystal precipitation, Days 14 [1] | crystal precipitation, Days 21 [1] | crystal precipitation, Days 24 [1] | crystal precipitation, Days 0 [3, 5] | crystal precipitation, Days 1 [3, 5] | crystal precipitation, Days 7 [3, 5] | crystal precipitation, Days 22 [3, 5] | crystal precipitation, Days 30 [3, 5] | crystal precipitation, Days 0 ([3]; 58 mM in feed medium pH 7) | crystal precipitation, Days 1 ([3]; 58 mM in feed medium pH 7) | crystal precipitation, Days 7 ([3]; 58 mM in feed medium pH 7) | crystal precipitation, Days 22 ([3]; 58 mM in feed medium pH 7) | crystal precipitation, Days 30 ([3]; 58 mM in feed medium pH 7) | antibody production amount [2] | use as an alternative for L-cysteine in the basal medium [4] | proliferation of cells (viable cell count) [4] | also measured
3 | Cl.N[C@@H](CS)C(=O)O.O [L-cysteine, L-cysteine hydrochloride monohydrate] |  | − | ++ | +++ | +++ | +++ | +++ | − | − | +++ | +++ | +++ | − | − | +++ | +++ | +++ |  |  | Proliferation of cells was observed | significant precipitation observed from (after the start of storage) ([1]; 5° C. in the dark): 3 days
